In PubChem BioAssay (NCI):
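GI50 = concentration required for 50% inhibition of growth. The concentration for full growth arrest is given as TGI.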

Assays:
Test in all cases: NCI anticancer screen, dose series, 384-well format
HOP-62 NSCLC = tested on: HOP-62 NSCLC
NCI-H522 lung = tested on: NCI-H522 lung
T-47D breast = tested on: T-47D breast
NCI-H23 lung = tested on: NCI-H23 lung
COLO 205 colon = tested on: COLO 205 colon
MCF7 breast = tested on: MCF7 breast
MDA-MB-435 melanoma = tested on: MDA-MB-435 melanoma
RXF 393 renal = tested on: RXF 393 renal
HOP-92 NSCLC = tested on: HOP-92 NSCLC
786-0 renal = tested on: 786-0 renal
BT-549 breast = tested on: BT-549 breast
SNB-75 CNS = tested on: SNB-75 CNS
DU-145 prostate = tested on: DU-145 prostate
UACC-62 melanoma = tested on: UACC-62 melanoma
MDA-MB-231 breast = tested on: MDA-MB-231 breast
KM12 colon = tested on: KM12 colon
EKVX NSCLC = tested on: EKVX NSCLC
NCI-H460 NSCLC = tested on: NCI-H460 NSCLC
SW-620 colon = tested on: SW-620 colon
SK-MEL-2 melanoma = tested on: SK-MEL-2 melanoma
NCI/ADR-RES ovarian = tested on: NCI/ADR-RES ovarian
OVCAR-4 ovarian = tested on: OVCAR-4 ovarian
SNB-19 CNS = tested on: SNB-19 CNS
TK-10 renal = tested on: TK-10 renal
NCI-H322M lung = tested on: NCI-H322M lung
ACHN renal = tested on: ACHN renal
OVCAR-5 ovarian = tested on: OVCAR-5 ovarian
HS 578T breast = tested on: HS 578T breast
SF-295 CNS = tested on: SF-295 CNS
K-562 leukemia = tested on: K-562 leukemia
SN12C renal = tested on: SN12C renal
LOX IMVI melanoma = tested on: LOX IMVI melanoma
SF-539 CNS = tested on: SF-539 CNS
UO-31 renal = tested on: UO-31 renal
A549 NSCLC = tested on: A549 NSCLC
SK-MEL-28 melanoma = tested on: SK-MEL-28 melanoma
HCT-15 colon = tested on: HCT-15 colon
SR leukemia = tested on: SR leukemia
SK-OV-3 ovarian = tested on: SK-OV-3 ovarian
HCC-2998 colon = tested on: HCC-2998 colon
MDA-MB-468 breast = tested on: MDA-MB-468 breast
PC-3 prostate = tested on: PC-3 prostate
NCI-H226 lung = tested on: NCI-H226 lung
SK-MEL-5 melanoma = tested on: SK-MEL-5 melanoma
MOLT-4 leukemia = tested on: MOLT-4 leukemia
A498 renal = tested on: A498 renal
OVCAR-3 ovarian = tested on: OVCAR-3 ovarian
RPMI-8226 leukemia = tested on: RPMI-8226 leukemia
UACC-257 melanoma = tested on: UACC-257 melanoma
MALME-3M melanoma = tested on: MALME-3M melanoma
IGROV1 ovarian = tested on: IGROV1 ovarian
M14 melanoma = tested on: M14 melanoma
CAKI-1 renal = tested on: CAKI-1 renal
U251 glioblastoma = tested on: U251 glioblastoma
HT29 colon = tested on: HT29 colon
SF-268 CNS = tested on: SF-268 CNS
HCT-116 colon = tested on: HCT-116 colon
CCRF-CEM leukemia = tested on: CCRF-CEM leukemia
HL-60(TB) leukemia = tested on: HL-60(TB) leukemia

N[C@H](CCC(=O)N[C@@H](Cc1c[nH]c2ccccc12)C(=O)O)C(=O)O was tested, and the GI50 (HOP-62 NSCLC) was > 100 µM, the TGI (HOP-62 NSCLC) was > 100 µM and the GI50 (NCI-H522 lung) was > 100 µM. For the same compound, the TGI (NCI-H522 lung) was > 100 µM, the GI50 (T-47D breast) was > 100 µM and the TGI (T-47D breast) was > 100 µM. The GI50 (NCI-H23 lung) was > 100 µM, the TGI (NCI-H23 lung) was > 100 µM and the GI50 (COLO 205 colon) was > 100 µM. For the same compound, the TGI (COLO 205 colon) was > 100 µM, the GI50 (MCF7 breast) was > 100 µM and the TGI (MCF7 breast) was > 100 µM. The GI50 (MDA-MB-435 melanoma) was > 100 µM, the TGI (MDA-MB-435 melanoma) was > 100 µM and the GI50 (RXF 393 renal) was > 100 µM. For the same compound, the TGI (RXF 393 renal) was > 100 µM, the GI50 (HOP-92 NSCLC) was > 100 µM and the TGI (HOP-92 NSCLC) was > 100 µM. For the same compound, the GI50 ([…]-0 renal) was > 100 µM, the TGI (786-0 renal) was > 100 µM and the GI50 (BT-549 breast) was > 100 µM. The TGI (BT-549 breast) was > 100 µM, the GI50 (SNB-75 CNS) was > 100 µM and the TGI (SNB-75 CNS) was > 100 µM. For the same compound, the GI50 (DU-145 prostate) was > 100 µM, the TGI (DU-145 prostate) was > 100 µM and the GI50 (UACC-62 melanoma) was > 100 µM. The TGI (UACC-62 melanoma) was > 100 µM, the GI50 (MDA-MB-231 breast) was > 100 µM and the TGI (MDA-MB-231 breast) was > 100 µM. The GI50 (KM12 colon) was > 100 µM, the TGI (KM12 colon) was > 100 µM and the GI50 (EKVX NSCLC) was > 100 µM. For the same compound, the TGI (EKVX NSCLC) was > 100 µM, the GI50 (NCI-H460 NSCLC) was > 100 µM and the TGI (NCI-H460 NSCLC) was > 100 µM. The GI50 (SW-620 colon) was > 100 µM, the TGI (SW-620 colon) was > 100 µM and the GI50 (SK-MEL-2 melanoma) was > 100 µM. The TGI (SK-MEL-2 melanoma) was > 100 µM, the GI50 (NCI/ADR-RES ovarian) was > 100 µM and the TGI (NCI/ADR-RES ovarian) was > 100 µM. For the same compound, the GI50 (OVCAR-4 ovarian) was > 100 µM, the TGI (OVCAR-4 ovarian) was > 100 µM and the GI50 (SNB-19 CNS) was > 100 µM. For the same compound, the TGI (SNB-19 CNS) was > 100 µM, the GI50 (TK-10 renal) was > 100 µM and the TGI (TK-10 renal) was > 100 µM. The GI50 (NCI-H322M lung) was > 100 µM, the TGI (NCI-H322M lung) was > 100 µM and the GI50 (ACHN renal) was > 100 µM. For the same compound, the TGI (ACHN renal) was > 100 µM, the GI50 (OVCAR-5 ovarian) was > 100 µM and the TGI (OVCAR-5 ovarian) was > 100 µM. For the same compound, the GI50 (HS 578T breast) was > 100 µM, the TGI (HS 578T breast) was > 100 µM and the GI50 (SF-295 CNS) was > 100 µM. The TGI (SF-295 CNS) was > 100 µM, the GI50 (K-562 leukemia) was > 100 µM and the TGI (K-562 leukemia) was > 100 µM. The GI50 (SN12C renal) was > 100 µM, the TGI (SN12C renal) was > 100 µM and the GI50 (LOX IMVI melanoma) was > 100 µM. The TGI (LOX IMVI melanoma) was > 100 µM, the GI50 (SF-539 CNS) was > 100 µM and the TGI (SF-539 CNS) was > 100 µM. The GI50 (UO-31 renal) was > 100 µM, the TGI (UO-31 renal) was > 100 µM and the GI50 (A549 NSCLC) was > 100 µM. For the same compound, the TGI (A549 NSCLC) was > 100 µM, the GI50 (SK-MEL-28 melanoma) was > 100 µM and the TGI (SK-MEL-28 melanoma) was > 100 µM. For the same compound, the GI50 (HCT-15 colon) was > 100 µM, the TGI (HCT-15 colon) was > 100 µM and the GI50 (SR leukemia) was > 100 µM. The TGI (SR leukemia) was > 100 µM, the GI50 (SK-OV-3 ovarian) was > 100 µM and the TGI (SK-OV-3 ovarian) was > 100 µM. For the same compound, the GI50 (HCC-2998 colon) was > 100 µM, the TGI (HCC-2998 colon) was > 100 µM and the GI50 (MDA-MB-468 breast) was > 100 µM. For the same compound, the TGI (MDA-MB-468 breast) was > 100 µM, the GI50 (PC-3 prostate) was > 100 µM and the TGI (PC-3 prostate) was > 100 µM. The GI50 (NCI-H226 lung) was > 100 µM, the TGI (NCI-H226 lung) was > 100 µM and the GI50 (SK-MEL-5 melanoma) was > 100 µM. For the same compound, the TGI (SK-MEL-5 melanoma) was > 100 µM, the GI50 (MOLT-4 leukemia) was > 100 µM and the TGI (MOLT-4 leukemia) was > 100 µM. The GI50 (A498 renal) was > 100 µM, the TGI (A498 renal) was > 100 µM and the GI50 (OVCAR-3 ovarian) was > 100 µM. For the same compound, the TGI (OVCAR-3 ovarian) was > 100 µM, the GI50 (RPMI-8226 leukemia) was > 100 µM and the TGI (RPMI-8226 leukemia) was > 100 µM. The GI50 (UACC-257 melanoma) was > 100 µM, the TGI (UACC-257 melanoma) was > 100 µM and the GI50 (MALME-3M melanoma) was > 100 µM. The TGI (MALME-3M melanoma) was > 100 µM, the GI50 (IGROV1 ovarian) was > 100 µM and the TGI (IGROV1 ovarian) was > 100 µM. The GI50 (M14 melanoma) was > 100 µM, the TGI (M14 melanoma) was > 100 µM and the GI50 (CAKI-1 renal) was > 100 µM. The TGI (CAKI-1 renal) was > 100 µM, the GI50 (U251 glioblastoma) was > 100 µM and the TGI (U251 glioblastoma) was > 100 µM. The GI50 (HT29 colon) was > 100 µM, the TGI (HT29 colon) was > 100 µM and the GI50 (SF-268 CNS) was > 100 µM. For the same compound, the TGI (SF-268 CNS) was > 100 µM, the GI50 (HCT-116 colon) was > 100 µM and the TGI (HCT-116 colon) was > 100 µM. The GI50 (CCRF-CEM leukemia) was > 100 µM, the TGI (CCRF-CEM leukemia) was > 100 µM and the GI50 (HL-60(TB) leukemia) was > 100 µM. For the same compound, the TGI (HL-60(TB) leukemia) was > 100 µM.
